Results reported in patent US20030054549A1, “Stem cell reinforcing material” (priority 2000, published 2003).

Experiments:
[1] = system: bone marrow hematopoietic stem cells; test: Example 4: mouse spleen colony method with radiation exposure and bone marrow transplant, female rats, mixture vs genistein vs 17β estradiole; format: in vivo; conditions: female ICR, 8 Gy; for spleen weight after radiation exposure per 10 g body weight: day 10 after bone marrow transplant
Procedure: They were reared with five rats in each group.
With the exception of comparative groups 8 and 9, bone marrow transplant was performed 24 hours after radiation exposure on the rats of comparative groups 10 and 11 as well as those of experimental groups 7, 8, and 9.
Body weight of all rats was determined when rearing was started, after one week, and after two weeks and before bone marrow transplant and on day 5, day 7 and day 10 after transplant.

[2] = system: bone marrow hematopoietic cells and reproductive stem cells
Procedure: 1) Healthy male rats of equal body weight in each group were reared as the sample (male ICR) (six weeks old). They were reared with 10 rats each in comparative groups 3, 4 and 5 as well as experimental group 4 and 5 rats in experimental group 3.
The rats of comparative groups 4 and 5 as well as experimental groups 3 and 4 were systemically exposed one time only to a dose of 8 Gy after three weeks of rearing.
Bone marrow transplant was performed on the rats of each group 24 hours after radiation exposure. In this case, the femur of a donor rat of the same species was cut out. A small piece was cut off from both ends of the femur with a clean bench. Once 1 ml RPMI medium 1640 medium containing 10% antibiotic-antimycotic was injected with a syringe from one end through the medullary cavity, it was pushed into a test tube. The marrow cell count was adjusted to 10^5/ml and 0.5 ml was injected from a caudal vein. The donor rat had been systemically exposed to 2 Gy radiation and reared for three weeks on feed of 1 wt % of the koji mold soybean fermentation and cultivation product added to ordinary food.
All of the rats were sacrificed, the spleen was excised, spleen weight and the number of spleen colonies formed were determined, and the […] were likewise excised and testicle weight was determined after determining body weight on day 7 after bone marrow transplant.
Body weight of all rats was determined before bone marrow transplant and on day 7 after transplant.

C[C@]12CC[C@@H]3c4ccc(O)cc4CC[C@H]3[C@@H]1CC[C@@H]2O [17β estradiole]
spleen weight after radiation exposure per 10 g body weight ([1]; 10 μg/kg body weight in feed): lower values than experimental groups 7, 8 and 9 | spleen colony formation ([1]; 10 μg/kg body weight in feed, day 10 after transplant): no augmentation whatsoever

O=c1c(-c2ccc(O)cc2)coc2cc(O)cc(O)c12 [genistein]
spleen weight after radiation exposure per 10 g body weight ([1]; 30 mg/kg body weight in feed, vs comparative groups 9 and 10): significantly higher | number of spleen colonies that formed following transplant after radiation exposure ([1]; 30 mg/kg body weight in feed, day 10 after transplant, vs comparative groups 10 and 11): significantly higher | body weight ([1]; 30 mg/kg body weight in feed, judging from day 7 after radiation exposure): tendency toward an increase

CN(C)CCOc1ccc(/C(=C(/CCCl)c2ccccc2)c2ccccc2)cc1 [toremifen]
spleen weight after radiation exposure per 10 g body weight ([2]; male ICR, 30 mg/kg body weight in feed, 8 Gy, day 7 after bone marrow transplant, compared to unexposed comparative group 3): somewhat lower value than the others | testicle weight after radiation exposure per 10 g body weight ([2]; male ICR, 30 mg/kg body weight in feed, 8 Gy, day 7 after transplant, compared to unexposed comparative group 3): likewise lower | toxicity (spleen weight and body weight lower) ([2]; rat, in vivo, 30 mg/kg): considerably stronger than isoflavone aglycone
